Square brackets hold non-standard residues; d marks the D form. Peptide text beside a SMILES is read from it.
What follows are compounds tested against human CXCR4 (Homo sapiens, UniProt P61073) (assay: CXCR4/CXCL12 binding, HTRF format, single concentration (Example 23)). Details: 15 nM CXCR4R fluorescent probe, 3 hours, HEK293 Tag-lite CXCR4 cells.
Design: host or cells: HEK293 (Tag-lite CXCR4 cells, frozen aliquots, transient expression)
Procedure: Peptides were initially prepared as 1 mM stock in H2O and tested at a final concentration of 400 nM. Following the manufacture's protocol, a frozen aliquot of Tag-lite CXCR4 cells was thawed and immediately seeded onto 384-well plates in TLB. Immediately following the addition of cells, 400 nM peptide (final concentration) in TLB was added to the appropriate well. Then 15 nM (final concentration; EC80) of CXCR4R fluorescent probe was added to each well to initiate the HTRF assay. The plates were covered in aluminum foil and left at room temperature for 3 hours. Following the 3 hour incubation period, the plates were removed from the incubator and fluorescence measured using a Cytation 1 plate reader using a HTRF filter cube ([…]; BioTek; Winooski, Vt.). According manufacture's instruction data reduction was performed by calculating the ratio of 665 nm signal (TRF of 665 nm excitation by 620 emission; amount of CXCR4R fluorescent probe bound to terbium labeled CXCR receptor)/620 nm signal (620 excitation by 330 nm light source; normalization factor for amount of terbium labeled CXCR4 receptor in well)×10,000.

Sequence of human CXCR4 (P61073 whole entry): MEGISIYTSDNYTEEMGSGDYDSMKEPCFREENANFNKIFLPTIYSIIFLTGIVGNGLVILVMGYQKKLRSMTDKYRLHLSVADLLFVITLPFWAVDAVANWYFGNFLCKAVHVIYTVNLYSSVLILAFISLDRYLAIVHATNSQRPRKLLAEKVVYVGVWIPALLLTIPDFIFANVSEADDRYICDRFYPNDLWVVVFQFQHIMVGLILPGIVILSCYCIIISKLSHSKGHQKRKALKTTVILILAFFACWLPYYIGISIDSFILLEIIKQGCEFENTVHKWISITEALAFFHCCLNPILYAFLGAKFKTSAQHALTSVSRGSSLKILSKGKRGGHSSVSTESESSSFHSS

Percent Inhibition of CXCR4/CXCL12 Binding (400 nM peptide) | Structure (SMILES)
−8% | CC(C)C[C@H](NC(=O)[C@H](CO)NC(=O)[C@H](CO)NC(=O)[C@H](CCCNC(=N)N)NC(=O)[C@@H](NC(=O)[C@H](CO)NC(=O)[C@H](Cc1c[nH]cn1)NC(=O)[C@H](Cc1c[nH]cn1)NC(=O)[C@H](Cc1ccc(O)cc1)NC(=O)[C@H](CCCNC(=N)N)NC(=O)[C@@H](N)CCCNC(=N)N)C(C)C)C(=O)N[C@@H](CCCNC(=N)N)C(=O)N1CCC[C@H]1C(=O)N[C@@H](Cc1ccc(O)cc1)C(=O)N[C@H](C(=O)N[C@@H](CCCCN)C(=O)O)[C@@H](C)O [compound 10] (H-RRYHHSVRSSLRPYTK-OH; N-terminus and C-terminus assumed)
44% | CC(C)C[C@H](NC(=O)[C@H](CO)NC(=O)[C@H](CO)NC(=O)[C@H](CCCNC(=N)N)NC(=O)[C@@H](NC(=O)[C@H](CO)NC(=O)[C@H](Cc1c[nH]cn1)NC(=O)[C@H](Cc1c[nH]cn1)NC(=O)[C@H](Cc1ccc(O)cc1)NC(=O)[C@H](CCCNC(=N)N)NC(=O)[C@H](CCC(=O)O)NC(=O)[C@@H](N)CC(C)C)C(C)C)C(=O)N[C@@H](CCCNC(=N)N)C(=O)N1CCC[C@H]1C(=O)N[C@@H](Cc1ccc(O)cc1)C(=O)O [compound 19] (H-LERYHHSVRSSLRPY-OH; N-terminus and C-terminus assumed)
37% | CC(C)C[C@H](NC(=O)[C@H](CO)NC(=O)[C@H](CO)NC(=O)[C@H](CCCNC(=N)N)NC(=O)[C@@H](NC(=O)[C@H](CO)NC(=O)[C@H](Cc1c[nH]cn1)NC(=O)[C@H](Cc1c[nH]cn1)NC(=O)[C@H](Cc1ccc(O)cc1)NC(=O)[C@H](CCCNC(=N)N)NC(=O)[C@H](CCC(=O)O)NC(=O)[C@@H](N)CC(C)C)C(C)C)C(=O)N[C@@H](CCCNC(=N)N)C(=O)N1CCC[C@H]1C(=O)O [compound 20] (H-LERYHHSVRSSLRP-OH; N-terminus and C-terminus assumed)
20% | CC(C)C[C@H](NC(=O)[C@H](CO)NC(=O)[C@H](CO)NC(=O)[C@H](CCCNC(=N)N)NC(=O)[C@@H](NC(=O)[C@H](CO)NC(=O)[C@H](Cc1c[nH]cn1)NC(=O)[C@H](Cc1c[nH]cn1)NC(=O)[C@H](Cc1ccc(O)cc1)NC(=O)[C@H](CCCNC(=N)N)NC(=O)[C@H](CCC(=O)O)NC(=O)[C@@H](N)CC(C)C)C(C)C)C(=O)N[C@@H](CCCNC(=N)N)C(=O)O [compound 21] (H-LERYHHSVRSSLR-OH; N-terminus and C-terminus assumed)
23% | CC(C)C[C@H](N)C(=O)N[C@@H](CCC(=O)O)C(=O)N[C@@H](CCCNC(=N)N)C(=O)N[C@@H](Cc1ccc(O)cc1)C(=O)N[C@@H](Cc1c[nH]cn1)C(=O)N[C@@H](Cc1c[nH]cn1)C(=O)N[C@@H](CO)C(=O)N[C@H](C(=O)N[C@@H](CCCNC(=N)N)C(=O)N[C@@H](CO)C(=O)N[C@@H](CO)C(=O)O)C(C)C [compound 23] (H-LERYHHSVRSS-OH; N-terminus and C-terminus assumed)
8% | CC(C)C[C@H](NC(=O)[C@H](CO)NC(=O)[C@H](CO)NC(=O)[C@H](CCCNC(=N)N)NC(=O)[C@@H](NC(=O)[C@H](CO)NC(=O)[C@H](Cc1c[nH]cn1)NC(=O)[C@H](Cc1c[nH]cn1)NC(=O)[C@H](Cc1ccc(O)cc1)NC(=O)[C@H](CCCNC(=N)N)NC(=O)[C@H](CCCNC(=N)N)NC(=O)[C@@H](N)CC(C)C)C(C)C)C(=O)N[C@@H](CCCNC(=N)N)C(=O)N1CCC[C@H]1C(=O)N[C@@H](Cc1ccc(O)cc1)C(=O)N[C@H](C(=O)O)[C@@H](C)O [compound 24] (H-LRRYHHSVRSSLRPYT-OH; N-terminus and C-terminus assumed)
0% | CC(C)C[C@H](NC(=O)[C@H](CO)NC(=O)[C@H](CO)NC(=O)[C@H](CCCNC(=N)N)NC(=O)[C@@H](NC(=O)[C@H](CO)NC(=O)[C@H](Cc1c[nH]cn1)NC(=O)[C@H](Cc1c[nH]cn1)NC(=O)[C@H](Cc1ccc(O)cc1)NC(=O)[C@H](CCCNC(=N)N)NC(=O)[C@H](CCCNC(=N)N)NC(=O)[C@@H](N)CC(C)C)C(C)C)C(=O)N[C@@H](CCCNC(=N)N)C(=O)N1CCC[C@H]1C(=O)N[C@@H](Cc1ccc(O)cc1)C(=O)O [compound 25] (H-LRRYHHSVRSSLRPY-OH; N-terminus and C-terminus assumed)
1% | CC(C)C[C@H](NC(=O)[C@H](CO)NC(=O)[C@H](CO)NC(=O)[C@H](CCCNC(=N)N)NC(=O)[C@@H](NC(=O)[C@H](CO)NC(=O)[C@H](Cc1c[nH]cn1)NC(=O)[C@H](Cc1c[nH]cn1)NC(=O)[C@H](Cc1ccc(O)cc1)NC(=O)[C@H](CCCNC(=N)N)NC(=O)[C@H](CCCNC(=N)N)NC(=O)[C@@H](N)CC(C)C)C(C)C)C(=O)N[C@@H](CCCNC(=N)N)C(=O)N1CCC[C@H]1C(=O)O [compound 26] (H-LRRYHHSVRSSLRP-OH; N-terminus and C-terminus assumed)
10% | CC(C)C[C@H](NC(=O)[C@H](CO)NC(=O)[C@H](CO)NC(=O)[C@H](CCCNC(=N)N)NC(=O)[C@@H](NC(=O)[C@H](CO)NC(=O)[C@H](Cc1c[nH]cn1)NC(=O)[C@H](Cc1c[nH]cn1)NC(=O)[C@H](Cc1ccc(O)cc1)NC(=O)[C@H](CCCNC(=N)N)NC(=O)[C@H](CCCNC(=N)N)NC(=O)[C@@H](N)CC(C)C)C(C)C)C(=O)N[C@@H](CCCNC(=N)N)C(=O)O [compound 27] (H-LRRYHHSVRSSLR-OH; N-terminus and C-terminus assumed)
14% | CC(C)C[C@H](N)C(=O)N[C@@H](CCCNC(=N)N)C(=O)N[C@@H](CCCNC(=N)N)C(=O)N[C@@H](Cc1ccc(O)cc1)C(=O)N[C@@H](Cc1c[nH]cn1)C(=O)N[C@@H](Cc1c[nH]cn1)C(=O)N[C@@H](CO)C(=O)N[C@H](C(=O)N[C@@H](CCCNC(=N)N)C(=O)N[C@@H](CO)C(=O)N[C@@H](CO)C(=O)O)C(C)C [compound 29] (H-LRRYHHSVRSS-OH; N-terminus and C-terminus assumed)
32% | CC(C)C[C@H](NC(=O)[C@H](CO)NC(=O)[C@H](CO)NC(=O)[C@H](CCCNC(=N)N)NC(=O)[C@@H](NC(=O)[C@H](CO)NC(=O)[C@H](Cc1c[nH]cn1)NC(=O)[C@H](CC(N)=O)NC(=O)[C@H](Cc1ccc(O)cc1)NC(=O)[C@H](CCCNC(=N)N)NC(=O)[C@H](CCC(=O)O)NC(=O)[C@@H](N)CC(C)C)C(C)C)C(=O)N[C@@H](CCCNC(=N)N)C(=O)N1CCC[C@H]1C(=O)N[C@@H](Cc1ccc(O)cc1)C(=O)N[C@H](C(=O)N[C@@H](CCCCN)C(=O)O)[C@@H](C)O [compound 42] (H-LERYNHSVRSSLRPYTK-OH; N-terminus and C-terminus assumed)
0% | CC(C)C[C@H](NC(=O)[C@H](CO)NC(=O)[C@H](CO)NC(=O)[C@H](CCCNC(=N)N)NC(=O)[C@@H](NC(=O)[C@H](CO)NC(=O)[C@H](CC(N)=O)NC(=O)[C@H](Cc1c[nH]cn1)NC(=O)[C@H](Cc1ccc(O)cc1)NC(=O)[C@H](CCCNC(=N)N)NC(=O)[C@H](CCCNC(=N)N)NC(=O)[C@@H](N)CC(C)C)C(C)C)C(=O)N[C@@H](CCCNC(=N)N)C(=O)N1CCC[C@H]1C(=O)N[C@@H](Cc1ccc(O)cc1)C(=O)N[C@H](C(=O)N[C@@H](CCCCN)C(=O)O)[C@@H](C)O [compound 44] (H-LRRYHNSVRSSLRPYTK-OH; N-terminus and C-terminus assumed)
−4% | CC(C)C[C@H](NC(=O)[C@H](CO)NC(=O)[C@H](CO)NC(=O)[C@H](CCCNC(=N)N)NC(=O)[C@@H](C)NC(=O)[C@H](CO)NC(=O)[C@H](CC(N)=O)NC(=O)[C@H](Cc1c[nH]cn1)NC(=O)[C@H](Cc1ccc(O)cc1)NC(=O)[C@H](CCCNC(=N)N)NC(=O)[C@H](CCC(=O)O)NC(=O)[C@@H](N)CC(C)C)C(=O)N[C@@H](CCCNC(=N)N)C(=O)N1CCC[C@H]1C(=O)N[C@@H](Cc1ccc(O)cc1)C(=O)N[C@H](C(=O)N[C@@H](CCCCN)C(=O)O)[C@@H](C)O [compound 46] (H-LERYHNS[dA]RSSLRPYTK-OH; N-terminus and C-terminus assumed)
13% | CC(C)C[C@H](NC(=O)[C@H](CO)NC(=O)[C@H](CO)NC(=O)[C@H](CCCNC(=N)N)NC(=O)[C@@H](NC(=O)[C@H](CO)NC(=O)[C@H](Cc1c[nH]cn1)NC(=O)[C@H](CCC(N)=O)NC(=O)[C@H](Cc1ccc(O)cc1)NC(=O)[C@H](CCCNC(=N)N)NC(=O)[C@H](CCC(=O)O)NC(=O)[C@@H](N)CC(C)C)C(C)C)C(=O)N[C@@H](CCCNC(=N)N)C(=O)N1CCC[C@H]1C(=O)N[C@@H](Cc1ccc(O)cc1)C(=O)N[C@H](C(=O)N[C@@H](CCCCN)C(=O)O)[C@@H](C)O [compound 48] (H-LERYQHSVRSSLRPYTK-OH; N-terminus and C-terminus assumed)

Source: US20220395553A1, “CXCR4 ANTAGONIST PEPTIDES” (COHBAR, INC., priority 2019, published 2022)
